Source: patent US7799821B2, “Therapeutic compounds” (Allergan, Inc., priority 2004, dated 2010)
Like-named read-outs stand apart in the source and are kept apart here.

What was measured:
hEP2/Gqs5 = target: T1, hEP2/Gqs5 (Homo sapiens, UniProt P43116); assay: FLIPR calcium signal, hEP2; assay type: cell-based
T1 construct: expressed in transfected cells; host or cells: HEK-293(EBNA)
Description: (§1) HEK-293(EBNA) cells, stably expressing one type or subtype of recombinant human prostaglandin receptors (prostaglandin receptors expressed: hDP/Gqs5; hEP1; hEP2/Gqs5; hEP3A/Gqi5; hEP4/Gqs5; hFP; hIP; hTP), were cultured in 100 mm culture dishes in high-glucose DMEM medium containing 10% fetal bovine serum, 2 mM 1-glutamine, 250 μg/ml geneticin (G418) and 200 μg/ml hygromycin B as selection markers, and 100 units/ml penicillin G, 100 μg/ml streptomycin and 0.25 μg/ml amphotericin B. • (b) Calcium Signal Studies on the FLIPR™
(§2) Cells were seeded at a density of 5×10^4 cells per well in Biocoat® Poly-D-lysine-coated black-wall, clear-bottom 96-well plates (Becton-Dickinson) and allowed to attach overnight in an incubator at 37° C. Cells were then washed two times with HBSS-HEPES buffer (Hanks Balanced Salt Solution without bicarbonate and phenol red, 20 mM HEPES, pH 7.4) using a Denley Cellwash plate washer (Labsystems). After 45 minutes of dye-loading in the dark, using the calcium-sensitive dye Fluo-4 AM at a final concentration of 2 μM, plates were washed four times with HBSS-HEPES buffer to remove excess dye leaving 100 μl in each well. Plates were re-equilibrated to 37° C. for a few minutes.
(§3) Cells were excited with an Argon laser at 488 nm, and emission was measured through a 510-570 nm bandwidth emission filter (FLIPR™, Molecular Devices, Sunnyvale, Calif.). Drug solution was added in a 50 μl volume to each well to give the desired final concentration. The peak increase in fluorescence intensity was recorded for each well. On each plate, four wells each served as negative (HBSS-HEPES buffer) and positive controls (standard agonists: BW245C (hDP); PGE2 (hEP1; hEP2/Gqs5; hEP3A/Gqi5; hEP4/Gqs5); PGF2α (hFP); carbacyclin (hIP); U-46619 (hTP), depending on receptor). The peak fluorescence change in each drug-containing well was then expressed relative to the controls.
(§4) Compounds were tested in a high-throughput (HTS) or concentration-response (CoRe) format. In the HTS format, forty-four compounds per plate were examined in duplicates at a concentration of 10^−5 M. To generate concentration-response curves, four compounds per plate were tested in duplicates in a concentration range between 10^−5 and 10^−11 M. The duplicate values were averaged. In either, HTS or CoRe format each compound was tested on at least 3 separate plates using cells from different passages to give an n≧3.

hDP/Gqs5 = target: T2, hDP/Gqs5 (Homo sapiens, UniProt Q13258); assay: FLIPR calcium signal, hDP; assay type: cell-based
T2 construct: expressed in transfected cells; host or cells: HEK-293(EBNA)
T2 sequence (Q13258 1-359): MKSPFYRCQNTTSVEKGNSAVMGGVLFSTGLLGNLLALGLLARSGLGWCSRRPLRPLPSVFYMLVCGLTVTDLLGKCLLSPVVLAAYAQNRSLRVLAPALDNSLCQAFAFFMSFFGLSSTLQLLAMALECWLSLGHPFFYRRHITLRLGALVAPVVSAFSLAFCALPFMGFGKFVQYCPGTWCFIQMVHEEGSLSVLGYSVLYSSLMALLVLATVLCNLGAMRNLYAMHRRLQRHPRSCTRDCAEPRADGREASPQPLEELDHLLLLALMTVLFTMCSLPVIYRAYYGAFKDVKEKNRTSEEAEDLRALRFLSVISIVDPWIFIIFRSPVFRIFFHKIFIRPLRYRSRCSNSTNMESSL
Description: as §1, §2, §3, §4

hEP4/Gqs5 = target: T3, hEP4/Gqs5 (Homo sapiens, UniProt P35408); assay: FLIPR calcium signal, hEP4; assay type: cell-based; details: unit inferred; read-out: EP4 data flipr EC50
T3 construct: expressed in transfected cells; host or cells: HEK-293(EBNA)
Description: as §1, §2, §3, §4

[1] = target: T4, HEK-EBNA cells expressing a PG EP2 receptor subtype (Homo sapiens, UniProt P43116); assay: cAMP assay, EP2; assay type: cell-based; details: unit inferred; read-out: EP2 data cAMP EC50
T4 construct: expressed in transfected cells; host or cells: HEK-EBNA
Description: A 384-well drug plate was prepared to contain 6 test compounds, PGE2 and cAMP in 16 serial dilutions in triplicate, using a Biomek station. HEK-EBNA cells expressing a target PG receptor subtype (EP2 or EP4) were suspended in a stimulation buffer (HBSS, 0.1% BSA, 0.5 mM IBMX and 5 mM HEPES, pH 7.4) in a density of 10^4 cells/5 μl. The reaction was initiated by mixing 5 μL drug dilutions with 5 μl of HEK-EBNA cells in a well, carried out for 30 min at room temperature, and followed by the addition of 5 μl anti-cAMP acceptor beads in the control buffer with Tween-20 (25 mM NaCl, 0.03% Tween-20, 5 mM HEPES, pH7.4). After 30 min in the dark at room temperature, the mixtures were incubated with 15 μl biotinylated-cAMP/strepavidin donor beads in Lysis/Detection buffer (0.1% BSA, 0.3% Tween-20 and 5 mM HEPES, pH7.4) for 45 min at the room temperature. Fluorescence changes were read using a Fusion-alpha HT microplate reader.

human EP2 receptors = target: T5, human EP2 receptors (Homo sapiens, UniProt P43116); assay: Competition radioligand binding ([3H]PGE2), EP2; details: unit inferred; read-out: EP2 data Ki
T5 construct: expressed in transfected cells; host or cells: HEK 293
Description: Competition binding experiments were performed in a medium containing Hank's balanced salt solution, […], membranes (˜60 μg protein) or 2×10^5 cells from HEK 293 cells stably expressing human EP2 receptors, [^3H]PGE2 (10 nM) and various concentrations of test compounds in a total volume of 300 μl. Reaction mixtures were incubated at 23° C. for 60 min, and were filtered over Whatman GF/B filters under vacuum. Filters were washed three times with 5 ml ice-cold buffer containing 50 mM Tris/HCl (pH 7.3). Non-specific binding was estimated in the presence of excess unlabeled PGE2 (10 μM). Binding data fitted to the binding model for a single class of binding sites, using nonlinear regression analysis. IC50 values thus obtained were converted to Ki using the equation of Ki=(IC50/(1+[L]/KD) where [L] represents PGE2 concentration (10 nM) and KD the dissociation constant for [^3H]PGE2 at human EP2 receptors (40 nM).
(§5) HEK-293 cells stably expressing the human or feline FP receptor, or EP1, EP2, or EP4 receptors were washed with TME buffer, scraped from the bottom of the flasks, and homogenized for 30 sec using a Brinkman PT 10/35 polytron. TME buffer was added to achieve a final 40 ml volume in the centrifuge tubes (the composition of TME is 100 mM TRIS base, 20 mM MgCl2, […]; 10N HCl is added to achieve a pH of 7.4).
(§6) The cell homogenate was centrifuged at 19000 r.p.m. for 20 min at 4° C. using a Beckman Ti-60 rotor. The resultant pellet was resuspended in TME buffer to give a final 1 mg/ml protein concentration, as determined by Biorad assay. Radioligand binding competition assays vs. [^3H-]17 —phenyl PGF2α (5 nM) were performed in a 100 μl volume for 60 min. Binding reactions were started by adding plasma membrane fraction. The reaction was terminated by the addition of 4 ml ice-cold TRIS-HCl buffer and rapid filtration through glass fiber GF/B filters using a Brandel cell harvester. The filters were washed 3 times with ice-cold buffer and oven dried for one hour.
(§7) [^3H-] PGE2 (specific activity 180 Ci mmol) was used as the radioligand for EP receptors. [^3H] 17-phenyl PGF2α was employed for FP receptor binding studies. Binding studies employing EP1, EP2, EP4 and FP receptors were performed in duplicate in at least three separate experiments. A 200 μl assay volume was used. Incubations were for 60 min at 25° C. and were terminated by the addition of 4 ml of ice-cold 50 mM TRIS-HCl, followed by rapid filtration through Whatman GF/B filters and three additional 4 ml washes in a cell harvester (Brandel). Competition studies were performed using a final concentration of 5 nM [^3H]—PGE2, or 5 nM [^3H] 17-phenyl PGF2α and non-specific binding determined with 10^−5M of unlabeled PGE2, or 17-phenyl PGF2α, according to receptor subtype studied.

EP4 receptors = target: T6, EP4 receptors (Homo sapiens, UniProt P35408); assay: Radioligand binding ([3H]PGE2), EP4; details: unit inferred; read-out: EP4 data KI
T6 construct: expressed in transfected cells; host or cells: HEK-293
Description: as §5, §6, §7

hTP = target: T7, hTP (Homo sapiens, UniProt P21731); assay: FLIPR calcium signal, hTP; assay type: cell-based
T7 construct: expressed in transfected cells; host or cells: HEK-293(EBNA)
T7 sequence (P21731 1-343): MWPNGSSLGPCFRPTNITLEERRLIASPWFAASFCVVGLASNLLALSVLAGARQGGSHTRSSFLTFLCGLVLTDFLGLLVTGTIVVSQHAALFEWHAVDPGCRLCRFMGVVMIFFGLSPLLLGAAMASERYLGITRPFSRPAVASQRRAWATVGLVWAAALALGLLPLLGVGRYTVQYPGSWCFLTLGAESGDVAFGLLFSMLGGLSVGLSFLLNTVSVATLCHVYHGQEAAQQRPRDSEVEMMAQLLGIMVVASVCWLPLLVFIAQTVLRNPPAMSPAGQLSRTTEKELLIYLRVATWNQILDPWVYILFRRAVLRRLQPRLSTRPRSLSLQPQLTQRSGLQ
Description: as §1, §2, §3, §4

hEP3A/Gqi5 = target: T8, hEP3A/Gqi5 (Homo sapiens, UniProt P43115); assay: FLIPR calcium signal, hEP3A; assay type: cell-based; details: read-out: Other Receptors EC50 hEP3A
T8 construct: expressed in transfected cells; host or cells: HEK-293(EBNA)
T8 sequence (P43115 1-390): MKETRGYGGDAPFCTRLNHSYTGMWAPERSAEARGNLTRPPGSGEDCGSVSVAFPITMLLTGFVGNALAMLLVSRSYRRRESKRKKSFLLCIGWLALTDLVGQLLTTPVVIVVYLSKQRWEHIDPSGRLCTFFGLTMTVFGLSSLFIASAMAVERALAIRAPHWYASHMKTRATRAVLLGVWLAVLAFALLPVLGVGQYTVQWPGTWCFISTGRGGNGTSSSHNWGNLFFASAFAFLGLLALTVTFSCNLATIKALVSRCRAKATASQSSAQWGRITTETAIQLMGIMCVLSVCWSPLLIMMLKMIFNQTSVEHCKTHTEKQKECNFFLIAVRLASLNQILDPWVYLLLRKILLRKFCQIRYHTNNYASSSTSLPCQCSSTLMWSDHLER
Description: as §1, §2, §3, §4

[2] = unit inferred, other columns of the table in nM, read-out: EP2 data flipr EC50
[3] = read-out: Other Receptors EC50 hDP
[4] = FLIPR Ca2+ signal, HEK-293(EBNA), read-out: FUNCTIONAL EC50 HTP

T1 sequence (P43116 whole entry): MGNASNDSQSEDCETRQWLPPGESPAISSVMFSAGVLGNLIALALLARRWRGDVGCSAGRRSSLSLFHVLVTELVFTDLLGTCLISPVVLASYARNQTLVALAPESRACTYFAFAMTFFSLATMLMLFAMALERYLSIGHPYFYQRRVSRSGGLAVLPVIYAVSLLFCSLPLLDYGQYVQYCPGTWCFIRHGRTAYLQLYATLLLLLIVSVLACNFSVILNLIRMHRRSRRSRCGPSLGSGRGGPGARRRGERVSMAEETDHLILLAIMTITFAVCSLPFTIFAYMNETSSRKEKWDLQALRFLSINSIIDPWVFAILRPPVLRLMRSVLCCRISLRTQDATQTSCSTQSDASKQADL
T3 sequence (P35408 whole entry): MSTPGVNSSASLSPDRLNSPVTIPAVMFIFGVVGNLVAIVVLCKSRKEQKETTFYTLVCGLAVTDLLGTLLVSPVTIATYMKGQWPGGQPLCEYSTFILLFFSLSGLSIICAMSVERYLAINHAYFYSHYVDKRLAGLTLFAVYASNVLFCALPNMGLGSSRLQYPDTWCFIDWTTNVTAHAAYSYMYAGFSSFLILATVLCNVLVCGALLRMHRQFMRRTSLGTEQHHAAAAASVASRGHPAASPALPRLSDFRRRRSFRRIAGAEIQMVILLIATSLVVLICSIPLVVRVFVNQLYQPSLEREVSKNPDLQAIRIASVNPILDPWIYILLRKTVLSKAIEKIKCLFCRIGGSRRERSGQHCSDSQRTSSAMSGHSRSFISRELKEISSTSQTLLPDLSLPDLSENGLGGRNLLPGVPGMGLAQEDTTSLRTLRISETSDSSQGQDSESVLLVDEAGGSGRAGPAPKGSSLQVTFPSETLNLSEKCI
T6 sequence (P35408 whole entry): as above
T4 sequence (P43116 whole entry): as the sequence (P43116 whole entry) above
T5 sequence (P43116 whole entry): as above

## CCC(O)c1ccc(N2C(=O)CC[C@@H]2COCc2ccc(C(=O)O)s2)cc1 (stereo partly shown)
hEP2/Gqs5; [2]
  EC50: 1810 nM
hDP/Gqs5; [3]
  EC50: 7560 nM
hEP4/Gqs5
  EC50: > 10000 nM
[1]
  EC50: 312 nM
Human EP2 receptors
  Ki: 5730 nM
EP4 receptors
  Ki: > 10000 nM

## CCCCCCC(O)c1ccc(N2C(=O)CC[C@@H]2COCc2ccc(C(=O)O)s2)cc1 (stereo partly shown) [drawing 169]
hEP2/Gqs5; [2]
  EC50: 20 nM
hDP/Gqs5; [3]
  EC50: 5760 nM
[1]
  EC50: 1.5 nM
Human EP2 receptors
  Ki: 190 nM
EP4 receptors
  Ki: > 10000 nM

## O=C(O)CCCCCC[C@@H]1[C@@H](c2ccc(C3(O)CCC3)cc2)[C@H](O)C[C@H]1Cl
hEP2/Gqs5; FLIPR Ca2+ signal, HEK-293(EBNA), read-out: FUNCTIONAL EC50 HEP2
  EC50: 743 nM
hTP; [4]
  EC50: > 10000 nM

## CCCCCCC(O)c1ccc(N2C(=O)CC[C@@H]2CCCc2ccc(C(=O)O)s2)cc1 (stereo partly shown) [drawing 154]
hEP2/Gqs5; [2]
  EC50: 30 nM
hDP/Gqs5; [3]
  EC50: 105 nM
hEP4/Gqs5
  EC50: > 10000 nM
hEP3A/Gqi5
  EC50: 47 nM

## CCCC1(C(O)c2ccc([C@H]3[C@H](O)CC(=O)[C@@H]3C/C=C\CCCC(=O)OC)cc2)CCC1 (stereo partly shown)
hTP; [4]
  EC50: > 10000 nM

## CCCC1([C@@H](O)c2ccc([C@H]3CCC(=O)[C@@H]3C/C=C\CCCC(=O)O)cc2)CCC1 [drawing 191]
hDP/Gqs5; read-out: FUNCTIONAL Ca2+ EC50 HDP
  EC50: > 10000 nM

## O=C(O)CCCCCC[C@H]1C(=O)CC[C@@H]1c1ccc(C(O)C2CCCCC2)cc1 (stereo partly shown)
hEP2/Gqs5; read-out: FUNCTIONAL Ca2+ EC50 HEP2
  EC50: > 10000 nM
hTP; read-out: FUNCTIONAL Ca2+ EC50 HTP
  EC50: > 10000 nM

## CCCC1(C(O)c2cccc(C3C(O)CC(=O)C3Cc3cccc(OCC(=O)O)c3)c2)CCC1 (stereo not shown)
hDP/Gqs5; FLIPR Ca2+ signal, HEK-293(EBNA), read-out: FUNCTIONAL EC50 HDP
  EC50: > 10000 nM
